The record followed here is patent US20200115357A1, “LIVER X RECEPTORS (LXR) MODULATORS” (Phenex-FXR GmbH, priority 2017, published 2020).

One assay addresses T1, LXRβ full length (FL) (Homo sapiens, UniProt P55055, DUP175-175).
T1 construct: the full length (FL) proteins of LXRα (amino acids 1-447); NP005684; NP009052; expressed in transfected cells; host or cells: HEK293
T1 sequence (P55055 with tags, fused parts or gaps DUP175-175): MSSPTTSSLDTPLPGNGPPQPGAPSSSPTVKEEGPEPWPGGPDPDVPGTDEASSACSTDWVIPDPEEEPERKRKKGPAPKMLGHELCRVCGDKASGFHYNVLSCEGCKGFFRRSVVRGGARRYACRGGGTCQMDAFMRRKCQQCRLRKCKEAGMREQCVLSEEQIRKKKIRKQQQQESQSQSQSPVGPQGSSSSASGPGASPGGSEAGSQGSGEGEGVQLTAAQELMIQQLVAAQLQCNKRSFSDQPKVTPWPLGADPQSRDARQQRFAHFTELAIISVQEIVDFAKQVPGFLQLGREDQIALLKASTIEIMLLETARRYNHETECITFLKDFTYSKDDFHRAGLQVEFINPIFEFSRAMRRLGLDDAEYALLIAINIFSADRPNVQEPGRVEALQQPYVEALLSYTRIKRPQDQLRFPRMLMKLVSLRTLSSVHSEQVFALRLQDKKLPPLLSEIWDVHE
Description: LXR Gal4 reporter transient transfection assay (M2H), Gal4β FL. It is filed as cell-based. The settings on record: HEK293 cells; read-out: M2H Gal4β FL activity range (EC50). How it is done: (§1) The tested compounds were usually dissolved, tested and stored as 20 mM stock solutions in DMSO. Since sulfonyl acetic acid derivatives tend to decarboxylate under these conditions, these stock solutions were prepared, tested and stored as 20 mM DMSO stock solutions containing 100 mM trifluoroacetic acid (5 equivalents). Sulfonyl acetic acid derivatives are shelf stable as solid at rt for long time as reported by Griesbrecht et al. (Synlett 2010:374) or Faucher et al. (J. Med. Chem. 2004; 47:18).
(§2) LXR Gal4 Reporter Transient Transfection Assays
(§3) LXRα and LXRβ activity status was determined via detection of interaction with coactivator and corepressor proteins in mammalian two-hybrid experiments (M2H). For this, via transient transfection the full length (FL) proteins of LXRα (amino acids 1-447; NP005684; SEQ ID NO:7) or LXRβ-(amino acids 1-461; NP009052; SEQ ID NO:8) or the ligand-binding domains (LBD) of LXRα (amino acids 155-447 SEQ ID NO:3) or LXRβ (amino acids 156-461; SEQ ID NO:4) were expressed from pCMV-AD (Stratagene) as fusions to the transcriptional activation domain of NFkB. As cofactors, domains of either the steroid receptor coactivator 1 (SRC1; amino acids 552-887; SEQ ID NO:5) or of the corepressor NCoR (amino acids 1903-2312 SEQ ID NO:6) were expressed as fusions to the DNA binding domain of the yeast transcription factor GAL4 (from pCMV-BD; Stratagene). Interaction was monitored via activation of a coexpressed Firefly Luciferase Reporter gene under control of a promoter containing repetitive GAL4 response elements (vector pFRLuc; Stratagene). Transfection efficiency was controlled via cotransfection of constitutively active pRL-CMV Renilla reniformis luciferase reporter (Promega). HEK293 cells were grown in minimum essential medium (MEM) with 2 mM L-glutamine and Earle's balanced salt solution supplemented with 8.3% fetal bovine serum, 0.1 mM non-essential amino acids, 1 mM sodium pyruvate, at 37° C. in 5% CO2. 3.5×10^4 cells/well were plated in 96-well cell culture plates in growth medium supplemented with 8.3% fetal bovine serum for 16-20 h to ˜90% confluency. For transfection, medium was taken off and LXR and cofactor expressing plasmids as well as the reporter plasmids are added in 30 μL OPTIMEM/well including polyethylene-imine (PEI) as vehicle. Typical amounts of plasmids transfected/well: pCMV-AD-LXR (5 ng), pCMV-BD-cofactor (5 ng), pFR-Luc (100 ng), pRL-CMV (0.5 ng). Compound stocks were prepared in DMSO, prediluted in MEM to a total volume of 120 μL, and added 4 h after addition of the transfection mixture (final vehicle concentration not exceeding 0.2%). Cells were incubated for additional 16 h, lysed for 10 min in 1× Passive Lysis Buffer (Promega) and Firefly and Renilla luciferase activities were measured sequentially in the same cell extract using buffers containing D-luciferine and coelenterazine, respectively. Measurements of luminescence were done in a BMG-Iuminometer.

Another assay has as its target T2, LXRα full length (FL) (Homo sapiens, UniProt Q13133).
T2 construct: the full length (FL) proteins of LXRα (amino acids 1-447); NP005684; expressed in transfected cells; host or cells: HEK293
T2 sequence (Q13133 1-447): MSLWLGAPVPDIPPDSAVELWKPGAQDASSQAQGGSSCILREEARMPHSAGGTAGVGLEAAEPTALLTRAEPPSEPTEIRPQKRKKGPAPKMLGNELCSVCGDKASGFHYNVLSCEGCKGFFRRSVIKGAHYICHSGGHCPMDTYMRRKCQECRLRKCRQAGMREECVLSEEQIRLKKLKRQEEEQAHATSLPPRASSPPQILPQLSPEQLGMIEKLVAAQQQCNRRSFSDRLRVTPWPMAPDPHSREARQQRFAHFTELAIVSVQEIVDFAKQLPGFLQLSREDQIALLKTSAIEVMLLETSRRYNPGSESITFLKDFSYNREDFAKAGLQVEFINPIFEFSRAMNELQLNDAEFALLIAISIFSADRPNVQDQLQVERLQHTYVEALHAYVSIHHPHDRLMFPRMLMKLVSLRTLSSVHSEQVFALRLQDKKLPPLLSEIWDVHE
Description: LXR Gal4 reporter transient transfection assay (M2H), Gal4α FL. In kind it is cell-based. The note with it: HEK293 cells; read-out: M2H Gal4α FL activity range (EC50). How it is done:
as §1, §2, §3

Assay [1] deals with T3, GST-LXRβ ligand-binding domain (Homo sapiens, UniProt P55055, DUP175-175).
T3 construct: amino acids 156-461; NP009052; made in house; host or cells: E. coli
T3 sequence (P55055 with tags, fused parts or gaps DUP175-175): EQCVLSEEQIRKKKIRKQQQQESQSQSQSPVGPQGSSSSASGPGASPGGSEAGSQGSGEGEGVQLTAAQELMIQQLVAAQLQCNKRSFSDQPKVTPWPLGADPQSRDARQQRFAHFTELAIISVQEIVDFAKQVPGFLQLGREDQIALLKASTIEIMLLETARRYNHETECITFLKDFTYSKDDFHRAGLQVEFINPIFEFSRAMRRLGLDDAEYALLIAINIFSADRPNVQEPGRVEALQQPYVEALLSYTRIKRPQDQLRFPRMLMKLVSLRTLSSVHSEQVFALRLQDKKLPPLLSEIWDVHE
Description: TR-FRETβ activity assay (LXRβ-LBD / NCoA3 coactivator peptide, prestimulated with 24(S)-25-epoxycholesterol). In kind it is biochemical. Details: key to behavior in FRET assay: ag=agonist; ia=inverse agonist. The note with it: for EC50: 1 μM 24(S)-25-epoxycholesterol as prestimulating agonist, read-out: FRETβ activity range (EC50); for behavior in FRET assay: agonist or inverse agonist. How it is done: The tested compounds were usually dissolved, tested and stored as 20 mM stock solutions in DMSO. […] Sulfonyl acetic acid derivatives are shelf stable as solid at rt for long time as reported by Griesbrecht et al. (Synlett 2010:374) or Faucher et al. (J. Med. Chem. 2004; 47:18). TR-FRETβ Activity Assay Recombinant GST-LXRβ ligand-binding domain (LBD; amino acids 156-461; NP009052; SEQ ID NO:2) was expressed in E. coli and purified via gluthatione-sepharose affinity chromatography. N-terminally biotinylated NCoA3 coactivator peptide (SEQ ID NO:1) was chemically synthesized (Eurogentec). […] Finally, a detection mix was added containing anti GST-Tb cryptate (CisBio; 610SAXLB) and Streptavidin-XL665 (CisBio; 610SAXLB) as fluorescent donor and acceptor, respectively, as well as the coactivator peptide and LXRβ-LBD protein (SEQ ID NO:2). The reaction was mixed thoroughly, equilibrated for 1 h at 4° C. and vicinity of LXRβ and coactivator peptide was detected by measurement of fluorescence in a VictorX4 multiplate reader (PerkinElmer Life Science) using 340 nm as excitation and 615 and 665 nm as emission wavelengths. Assays were performed in triplicates. Final Assay Concentrations of Components: 240 mM KCl, 1 μg/μL BSA, 0.002% Triton-X-100, […] anti GST-Tb cryptate, 2.5 ng/μL Streptavidin-XL665, coactivator peptide (400 nM), LXRβ protein ([…], i.e. 76 nM)

`Cc1ccc2ccccc2c1S(=O)(=O)N(Cc1ccc(-c2cccc(S(=O)(=O)CC(=O)O)c2)cc1)Cc1cc(C(F)(F)F)co1` [10/16]: the concentration giving a half-maximal response (EC50) was 0.1 to 1 µM at LXRβ full length (FL), 1 to 10 µM on LXRα full length (FL) and above 10 µM in assay [1]. Also, the “behavior in FRET assay” value in assay [1] was “ia”.
With `Cc1ccc2ccccc2c1S(=O)(=O)N(Cc1ccc(-c2cccc(C(C)(C)C(=O)O)c2)cc1)Cc1cc2ccccc2o1` [10/17], the EC50 was below 0.1 µM on LXRβ full length (FL), 0.1 to 1 µM on LXRα full length (FL) and 1 to 10 µM in assay [1]. Further, the “behavior in FRET assay” value in assay [1] is on record as “ia”.
Consider `Cc1sc2ccccc2c1S(=O)(=O)N(Cc1ccc(-c2cccc(C(C)(C)C(=O)O)c2)cc1)Cc1ccc(C(F)(F)F)o1` [10/18], for which the half-maximal effective concentration (EC50) (at LXRβ full length (FL); on LXRα full length (FL); in assay [1]) was below 0.1 µM each time. The “behavior in FRET assay” value in assay [1] was “ia”.
`COc1ccc2cccnc2c1S(=O)(=O)N(Cc1ccc(-c2cccc(C(C)(C)C(=O)O)c2)cc1)Cc1ccc(C(F)(F)F)o1` [10/19]: the EC50 on LXRβ full length (FL) was below 0.1 µM; on LXRα full length (FL), below 0.1 µM; in assay [1], 0.1 to 1 µM. Further, the “behavior in FRET assay” value in assay [1] was “ag”.
On to `Cc1nn2cccnc2c1S(=O)(=O)N(Cc1ccc(-c2cccc(C(C)(C)C(=O)O)c2)cc1)Cc1ccc(C(F)(F)F)o1` [10/20], for which the figures for the concentration giving a half-maximal response (EC50) (at LXRβ full length (FL); at LXRα full length (FL); in assay [1]) were below 0.1 µM, 0.1 to 1 µM and 0.1 to 1 µM, respectively. Also, the “behavior in FRET assay” value in assay [1] was “ag”.
`COc1cccc(CN(Cc2ccc(-c3cccc(S(=O)(=O)CC(=O)O)c3)cc2)S(=O)(=O)c2c(C)cc(C)cc2C)c1` [11/3]: the EC50 was 1 to 10 µM on LXRβ full length (FL), 1 to 10 µM on LXRα full length (FL) and above 10 µM in assay [1]. The “behavior in FRET assay” value in assay [1] is “ia”.
As to `Cc1cc(C)c(S(=O)(=O)N(Cc2ccc(-c3cccc(S(=O)(=O)CC(=O)O)c3)cc2)Cc2ccc(F)c(C)c2)c(C)c1` [11/5], the concentration giving a half-maximal response (EC50) was 0.1 to 1 µM at LXRβ full length (FL), 1 to 10 µM on LXRα full length (FL) and above 10 µM in assay [1]. Besides, the “behavior in FRET assay” value in assay [1] is reported as “ia”.
As to `Cc1cc(C)c(S(=O)(=O)N(Cc2ccc(-c3cccc(S(=O)(=O)CC(=O)O)c3)cc2)Cc2c(F)cccc2Cl)c(C)c1` [11/6], the half-maximal effective concentration (EC50) at LXRβ full length (FL) was below 0.1 µM; on LXRα full length (FL), 0.1 to 1 µM; in assay [1], 0.1 to 1 µM. In assay [1], the “behavior in FRET assay” value was “ag”.
Turning to `Cc1cc(C)c(S(=O)(=O)N(Cc2ccc(-c3cccc(S(=O)(=O)CC(=O)O)c3)cc2)Cc2cncc(C(F)(F)F)c2)c(C)c1` [11/9], the EC50 (on LXRβ full length (FL); at LXRα full length (FL); in assay [1]) was 1 to 10 µM each time. Also, the “behavior in FRET assay” value in assay [1] is reported as “ia”.
Turning to `Cc1cc(C)c(S(=O)(=O)N(Cc2ccc(-c3cccc(S(=O)(=O)CC(=O)O)c3)cc2)Cc2csc(C(F)(F)F)c2)c(C)c1` [11/10], the EC50 (at LXRβ full length (FL); at LXRα full length (FL); in assay [1]) was 1 to 10 µM throughout. Besides, in assay [1], the “behavior in FRET assay” value is “ia”.
Consider `Cc1cc(C)c(S(=O)(=O)N(Cc2ccc(-c3cccc(S(=O)(=O)CC(=O)O)c3)cc2)Cc2ccc(F)cc2Cl)c(C)c1` [11/11], for which the concentration giving a half-maximal response (EC50) on LXRβ full length (FL) is 0.1 to 1 µM; on LXRα full length (FL), 1 to 10 µM; in assay [1], 0.1 to 1 µM. For the same compound, the “behavior in FRET assay” value in assay [1] is “ag”.
Consider `Cc1cc(C)c(S(=O)(=O)N(Cc2ccc(-c3cccc(S(=O)(=O)CC(=O)O)c3)cc2)Cc2ccccc2C(F)(F)F)c(C)c1` [11/12], for which the concentration giving a half-maximal response (EC50) was below 0.1 µM on LXRβ full length (FL), 0.1 to 1 µM at LXRα full length (FL) and 0.1 to 1 µM in assay [1]. Further, in assay [1], the “behavior in FRET assay” value is recorded as “ag”.
For `Cc1cc(C)c(S(=O)(=O)N(Cc2ccc(-c3cccc(S(=O)(=O)CC(=O)O)c3)cc2)Cc2cccc(OC(F)F)c2)c(C)c1` [11/15], the values for the EC50 (on LXRβ full length (FL); at LXRα full length (FL); in assay [1]) were 0.1 to 1 µM, 1 to 10 µM and 1 to 10 µM, respectively. For the same compound, the “behavior in FRET assay” value in assay [1] is “ia”.
